From ChEMBL document CHEMBL4476867, “Hydroxy formamide derivatives and their use” (2016)

Tests used:
[1] = Reduction in PICP levels in human cardiac fibroblasts incubated for 24 to 48 hrs by ELISA; assay type: functional
Outline: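 Human cardiac fibroblasts (passage 6 or below) were seeded at 10,000 to 15,000 cells per well in 96-well plates. The next day they were treated in ficoll crowding EMEM with 100 μM ascorbic acid and under 0.3% DMSO, for 24 to 48 hr at 37° C. Procollagen I C-terminal propeptide in the medium was measured with a Quidel ELISA. IC50 came from fitting levels relative to untreated controls to a log(inhibitor)-response equation in GraphPad Prism.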

[2] = target: T1, Bone morphogenetic protein 1 (Homo sapiens, UniProt P13497); experiment: Inhibition of C-terminal FLAG-6x-His epitope tagged and N-terminal human RAGE signal sequence tagged human BMP1 (23 to 721 amino acids) expressed in CHO-E1 cells pre-incubated for 10 mins before promyostatin peptide substrate addition and measured after 30 mins using 50 nM BMP1 by FRET based assay; assay type: cell-based
T1 sequence (P13497 whole entry): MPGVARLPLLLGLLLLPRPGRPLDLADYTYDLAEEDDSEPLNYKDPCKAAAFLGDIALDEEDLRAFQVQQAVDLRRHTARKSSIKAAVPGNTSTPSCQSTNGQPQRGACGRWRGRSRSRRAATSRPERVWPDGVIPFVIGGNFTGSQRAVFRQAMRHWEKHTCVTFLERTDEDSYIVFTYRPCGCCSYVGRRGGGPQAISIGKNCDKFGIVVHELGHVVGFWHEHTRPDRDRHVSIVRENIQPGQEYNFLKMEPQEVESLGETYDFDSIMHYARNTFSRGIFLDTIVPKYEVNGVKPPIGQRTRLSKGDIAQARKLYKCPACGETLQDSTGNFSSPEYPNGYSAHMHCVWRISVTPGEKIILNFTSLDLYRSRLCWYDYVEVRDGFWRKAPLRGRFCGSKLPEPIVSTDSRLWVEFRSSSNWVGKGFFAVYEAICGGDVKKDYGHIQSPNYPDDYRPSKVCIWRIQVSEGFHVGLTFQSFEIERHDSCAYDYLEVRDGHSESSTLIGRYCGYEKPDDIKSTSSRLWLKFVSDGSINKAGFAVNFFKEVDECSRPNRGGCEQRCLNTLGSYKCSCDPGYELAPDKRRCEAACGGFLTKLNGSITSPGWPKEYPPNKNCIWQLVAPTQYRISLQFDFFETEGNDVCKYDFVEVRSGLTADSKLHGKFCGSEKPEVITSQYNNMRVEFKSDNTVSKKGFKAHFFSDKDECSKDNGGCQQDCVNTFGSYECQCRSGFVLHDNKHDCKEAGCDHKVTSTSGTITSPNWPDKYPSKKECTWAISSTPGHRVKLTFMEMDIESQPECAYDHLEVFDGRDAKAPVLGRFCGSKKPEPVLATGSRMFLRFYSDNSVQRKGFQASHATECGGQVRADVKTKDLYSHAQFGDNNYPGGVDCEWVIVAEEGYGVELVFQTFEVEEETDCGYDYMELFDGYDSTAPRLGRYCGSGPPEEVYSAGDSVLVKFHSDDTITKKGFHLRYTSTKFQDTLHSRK

Tolloid-like protein 2 = target: T2, Tolloid-like protein 2 (Homo sapiens, UniProt Q9Y6L7); experiment: Inhibition of C-terminal Avi-6x-His epitope tagged and N-terminal human RAGE signal sequence tagged recombinant human TLL2 (26 to 1015 amino acids) expressed in CHOE1A cells incubated for 60 mins with promyostatin peptide substrate by FRET based assay; assay type: cell-based
T2 sequence (Q9Y6L7 whole entry): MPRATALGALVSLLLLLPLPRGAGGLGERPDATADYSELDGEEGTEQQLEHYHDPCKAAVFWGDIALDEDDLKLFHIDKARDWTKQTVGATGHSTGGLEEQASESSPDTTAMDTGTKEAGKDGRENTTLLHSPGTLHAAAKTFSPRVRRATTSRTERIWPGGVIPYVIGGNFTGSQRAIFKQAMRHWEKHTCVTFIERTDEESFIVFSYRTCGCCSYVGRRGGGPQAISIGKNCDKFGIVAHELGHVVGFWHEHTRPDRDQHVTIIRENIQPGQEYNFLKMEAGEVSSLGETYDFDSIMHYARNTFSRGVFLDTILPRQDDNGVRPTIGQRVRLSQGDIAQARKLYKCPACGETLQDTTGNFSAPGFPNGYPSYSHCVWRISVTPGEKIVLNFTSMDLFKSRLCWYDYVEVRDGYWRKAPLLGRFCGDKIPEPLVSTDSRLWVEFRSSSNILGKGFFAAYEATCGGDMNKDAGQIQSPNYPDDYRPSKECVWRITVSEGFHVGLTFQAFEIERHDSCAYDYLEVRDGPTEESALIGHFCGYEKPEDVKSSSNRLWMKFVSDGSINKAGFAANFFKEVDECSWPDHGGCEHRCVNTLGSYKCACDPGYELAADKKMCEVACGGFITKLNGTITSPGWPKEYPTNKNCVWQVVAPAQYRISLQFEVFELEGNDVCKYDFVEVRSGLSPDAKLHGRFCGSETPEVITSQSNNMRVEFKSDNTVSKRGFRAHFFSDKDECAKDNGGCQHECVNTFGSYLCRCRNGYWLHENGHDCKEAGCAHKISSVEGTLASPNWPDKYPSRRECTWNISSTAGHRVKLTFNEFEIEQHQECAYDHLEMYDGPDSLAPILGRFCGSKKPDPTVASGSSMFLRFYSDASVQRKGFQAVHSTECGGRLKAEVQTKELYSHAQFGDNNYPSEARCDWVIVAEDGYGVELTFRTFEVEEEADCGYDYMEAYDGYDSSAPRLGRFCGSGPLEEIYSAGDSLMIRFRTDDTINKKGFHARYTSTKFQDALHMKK

[3] = target: T1, Bone morphogenetic protein 1; experiment: Inhibition of C-terminal FLAG-6x-His epitope tagged and N-terminal human RAGE signal sequence tagged human BMP1 (23 to 721 amino acids) expressed in CHO-E1 cells pre-incubated for 10 mins before promyostatin peptide substrate addition and measured after 60 mins using 0.5 nM BMP1 by FRET based assay; assay type: cell-based
Tolloid-like protein 1 = Tolloid-like protein 1 (Homo sapiens, UniProt O43897, I156V/N221S/V284A); experiment: Inhibition of recombinant human TLL1 I156V/N221S/V284A mutant expressed in CHOE1A cells pre-incubated for 10 mins before promyostatin peptide substrate addition and measured after 60 mins by FRET based assay; assay type: cell-based
Sequence of Tolloid-like protein 1 (O43897 148-1013 I156V/N221S/V284A limits assumed): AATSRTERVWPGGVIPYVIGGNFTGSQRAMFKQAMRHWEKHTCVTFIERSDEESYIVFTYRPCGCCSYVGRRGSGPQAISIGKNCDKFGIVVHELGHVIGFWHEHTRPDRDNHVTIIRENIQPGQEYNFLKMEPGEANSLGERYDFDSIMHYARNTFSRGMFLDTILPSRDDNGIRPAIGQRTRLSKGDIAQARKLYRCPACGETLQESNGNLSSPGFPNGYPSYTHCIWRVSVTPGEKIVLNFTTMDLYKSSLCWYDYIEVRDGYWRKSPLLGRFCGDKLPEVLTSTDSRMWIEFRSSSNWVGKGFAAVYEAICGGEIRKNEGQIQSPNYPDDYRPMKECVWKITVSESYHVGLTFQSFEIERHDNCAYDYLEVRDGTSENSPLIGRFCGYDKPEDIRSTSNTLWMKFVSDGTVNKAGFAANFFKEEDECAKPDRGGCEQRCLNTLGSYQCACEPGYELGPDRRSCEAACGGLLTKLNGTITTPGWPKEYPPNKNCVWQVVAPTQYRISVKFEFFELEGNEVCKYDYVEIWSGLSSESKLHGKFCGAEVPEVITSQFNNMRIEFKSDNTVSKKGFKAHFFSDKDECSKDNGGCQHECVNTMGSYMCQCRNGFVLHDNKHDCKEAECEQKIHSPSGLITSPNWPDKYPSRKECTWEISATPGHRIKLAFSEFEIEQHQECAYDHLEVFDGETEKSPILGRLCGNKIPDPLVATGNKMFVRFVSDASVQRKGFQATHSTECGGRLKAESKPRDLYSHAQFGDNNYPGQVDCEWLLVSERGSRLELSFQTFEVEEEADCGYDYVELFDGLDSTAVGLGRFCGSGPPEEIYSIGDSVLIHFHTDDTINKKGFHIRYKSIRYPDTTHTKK

| Structure (SMILES) | IC50 [1] [µM] | IC50 [2] [nM] | IC50 (Tolloid-like protein 2) [nM] | IC50 [3] [nM] | IC50 (Tolloid-like protein 1) [nM] |
| --- | --- | --- | --- | --- | --- |
| CCCCC[C@H](CN(O)C=O)C(=O)NCNC(=O)c1ccc(-c2ccc(C(=O)O)cc2)o1 | < 3.98 | < 200 | < 794 | < 126 | < 398 |
| CCCCC[C@H](CN(O)C=O)C(=O)NCNC(=O)c1ccc(-c2cccc(C(=O)O)c2)o1 | < 3.98 | < 200 | < 794 | < 126 | < 398 |
| CCCCC[C@@H](C(=O)NCNC(=O)c1ccc(-c2cc(OCC)cc(C(=O)NCC[N+](C)(C)C)c2)o1)[C@@H](CC)N(O)C=O | < 3.98 | < 200 | < 794 | < 126 | < 398 |
| CCCCC[C@@H](C(=O)NCNC(=O)c1ccc(-c2cccc(C(C)(C)C(=O)O)c2)o1)[C@@H](CC)N(O)C=O | < 3.98 | < 200 | < 794 | < 126 | < 398 |
| CCCCC[C@@H](C(=O)NCNC(=O)c1ccc(-c2cc(OCC)cc(C(F)(F)C(=O)O)c2)o1)[C@@H](CC)N(O)C=O | < 3.98 | < 200 | < 794 | < 126 | < 398 |
| CCCCC[C@@H](C(=O)NCNC(=O)c1ccc(-c2cc(OCC)cc(P(=O)(OC)OC)c2)o1)[C@@H](CC)N(O)C=O | < 3.98 | < 200 | < 794 | < 126 | < 398 |
| CCCCC[C@@H](C(=O)NCNC(=O)c1ccc(-c2cccc(C(=O)N[C@@H](CC(=O)O)C(=O)O)c2)o1)[C@@H](CC)N(O)C=O | < 3.98 | < 200 | < 794 | < 126 | < 398 |
| CCCCC[C@@H](C(=O)NCNC(=O)c1ccc(-c2ccc(F)c(CC(=O)O)c2)o1)[C@@H](CC)N(O)C=O | < 3.98 | < 200 | < 794 | < 126 | < 398 |
| CCCCC[C@H](CN(O)C=O)C(=O)NCNC(=O)c1ccc(-c2cccc(CC(=O)O)c2)o1 | < 3.98 | < 200 | < 794 | < 126 | < 398 |
| CCCCC[C@H](CN(O)C=O)C(=O)NCNC(=O)c1ccc(-c2ccc(F)c(C(=O)O)c2)o1 | < 3.98 | < 200 | < 794 | < 126 | < 398 |
| CCCCC[C@H](CN(O)C=O)C(=O)NCNC(=O)c1ccc(-c2ccc(F)c(C(=O)OC)c2)o1 | < 3.98 | < 200 | < 794 | < 126 | < 398 |
| CCCCC[C@H](CN(O)C=O)C(=O)NCNC(=O)c1ccc(-c2ccc(F)c(C(=O)O)c2F)o1 | < 3.98 | < 200 | < 794 | < 126 | < 398 |
| CCCCC[C@H](CN(O)C=O)C(=O)NCNC(=O)c1ccc(-c2cc(OC)ccc2OC)o1 | < 3.98 | < 200 | < 794 | < 126 | < 398 |
| CCCCC[C@@H](C(=O)NCNC(=O)c1ccc(-c2cc(OCC)cc(C(=O)N(CC(=O)O)CC(=O)O)c2)o1)[C@@H](CC)N(O)C=O | < 3.98 | < 200 | < 794 | < 126 | < 398 |
| CCCCC[C@H](CN(O)C=O)C(=O)NCNC(=O)c1ccc(-c2cc(OC)cc(OC)c2)o1 | < 3.98 | < 200 | < 794 | < 126 | < 398 |
| CCCCC[C@H](CN(O)C=O)C(=O)NCNC(=O)c1ccc(-c2cccc(C(=O)O)c2F)o1 | < 3.98 | < 200 | < 794 | < 126 | < 398 |
| CCCCC[C@@H](C(=O)NCNC(=O)c1ccc(-c2ccc(C(=O)O)cc2)o1)[C@@H](CC)N(O)C=O | < 3.98 | < 200 | < 794 | < 126 | < 398 |
| CCCCC[C@H](CN(O)C=O)C(=O)NCNC(=O)c1ccc(-c2cccc(P(=O)(O)OC)c2)o1 | < 3.98 | < 200 | < 794 | < 126 | < 398 |
| CCCCC[C@H](CN(O)C=O)C(=O)NCNC(=O)c1ccc(-c2ccc(O)c(C(=O)O)c2)o1 | < 3.98 | < 200 | < 794 | < 126 | < 398 |
| CCCCC[C@@H](C(=O)NCNC(=O)c1ccc(-c2cc(O)cc(OCC)c2)o1)[C@@H](CC)N(O)C=O | < 3.98 | < 200 | < 794 | < 126 | < 398 |
| CCCCC[C@H](CN(O)C=O)C(=O)NCNC(=O)c1ccc(-c2cccc(C(=O)O)c2C)o1 | < 3.98 | < 200 | < 794 | < 126 | < 398 |
| CCCCC[C@H](CN(O)C=O)C(=O)NCNC(=O)c1ccc(-c2cccc(C(=O)O)c2OC)o1 | < 3.98 | < 200 | < 794 | < 126 | < 398 |
| CCCCC[C@H](CN(O)C=O)C(=O)NCNC(=O)c1ccc(-c2cccc(C(C)C(=O)O)c2)o1 (stereo not given in full) | < 3.98 | < 200 | < 794 | < 126 | < 398 |
| CCCCC[C@H](CN(O)C=O)C(=O)NCNC(=O)c1ccc(-c2ccc(N)c(C(=O)O)c2)o1 | < 3.98 | < 200 | < 794 | < 126 | < 398 |
| CCCCC[C@@H](C(=O)NCNC(=O)c1ccc(-c2cc(OCC)cc(C(=O)NC(CO)(CO)CO)c2)o1)[C@@H](CC)N(O)C=O | < 3.98 | < 200 | < 794 | < 126 | < 398 |
| CCCCC[C@H](CN(O)C=O)C(=O)NCNC(=O)c1ccc(-c2cccc(P(C)(=O)O)c2)o1 | < 3.98 | < 200 | < 794 | < 126 | < 398 |
| CCCCC[C@@H](C(=O)NCNC(=O)c1ccc(-c2cc(OCC)cc(C(=O)N[C@H](CC(=O)O)C(=O)O)c2)o1)[C@@H](CC)N(O)C=O | < 3.98 | < 200 | < 794 | < 126 | < 398 |
